Measured values as given in patent publication US4413007A, “Pesticidal symmetrical N-substituted bis-carbamoyloximino disulfide compounds” (priority 1978, dated 1983).

Experiments:
Format in all cases: in vivo
[1] = test system: two-spotted mite (Tetranychus urticae Koch); test: Mite Foliage Spray Test; parameters: key: A: excellent control; B: partial control; C: no control; details: 500 ppm, six days
Description: (§1) Suspensions of the test compounds were prepared by dissolving one gram of compound in 50 milliliters of acetone in which had been dissolved 0.1 gram (10 percent of the weight of compound) of an alkylphenoxy polyethoxyethanol surfactant, as an emulsifying or dispersing agent. The resulting solution was mixed into 150 milliliters of water to give roughly 200 milliliters of a suspension containing the compound in finely divided form. The thus-prepared stock suspension contained 0.5 percent by weight of compound. The test concentrations in parts per million by weight employed in the tests described hereinbelow were obtained by appropriate dilutions of the stock suspension with water. The test procedures were as follows:
Adults and nymphal stages of the two-spotted mite (Tetranychus urticae Koch), reared on Tendergreen bean plants at 80±5 percent relative humidity, were the test organisms. Infested leaves from a stock culture were placed on the primary leaves of two bean plants six to eight inches in height, growing in a two-and-a-half inch clay pot. 150-200 Mites, a sufficient number for testing, transferred from the excised leaves to the fresh plants in a period of twenty four hours. Following the twenty four hour transfer period, the excised leaves were removed from the infested plants. The test compounds were formulated by diluting the stock suspension with water to give a suspension containing 500 parts of test compound per million parts of final formulation. The potted plants (one pot per compound) were placed on a revolving turntable and sprayed with 100-110 milliliters of test compound formulation by use of a DeVilbiss spray gun set at 40 psig. air pressure. This application, which lasted 25 seconds, was sufficient to wet the plants to run-off. As a control, 100-110 milliliters of a water solution containing acetone and emulsifier in the same concentrations as the test compound formulation, but containing no test compound, were also sprayed on infested plants. The sprayed plants were held at 80±5 percent relative humidity for six days, after which a mortality count of motile forms was made. Microscopic examination for motile forms was made on the leaves of the test plants. Any individual which was capable of locomotion upon prodding was considered living.
(§2) In these tests the pesticidal activity of the compounds against aphid, mite, Southern Armyworm, Bean Beetle and house fly was rated as follows: […]

[2] = test system: Mexican bean beetle (Epilachna varivestis, Muls.); test: Mexican Bean Beetle Leaf Spray Test; parameters: key: A: excellent control; B: partial control; C: no control; details: 500 ppm, three days
Description: as §1
Fourth instar larvae of the Mexican bean beetle (Epilachna varivestis, Muls.), reared on Tendergreen bean plants at a temperature of 80±5° F. and 50±5 percent relative humidity, were the test insects.
The test compounds were formulated by diluting the stock suspension with water to give a suspension containing 500 parts of test compound per million parts of final formulation. Potted Tendergreen bean plants of standard height and age were placed on a revolving turntable and sprayed with 100-110 milliliters of test compound formulation by use of a DeVilbiss spray gun set at 10 psig air pressure. The application, which lasted 25 seconds, was sufficient to wet plants to run-off. As a control, 100-110 milliliters of a water-acetone-emulsifier solution containing no test compound were also sprayed on infested plants. When dry, the paired leaves were separated and each was placed in a 9 centimeter Petri dish lined with moistened filter paper. Five randomly selected larvae were introduced into each dish, and the dishes were closed. The closed dishes were labeled and held at a temperature of 80±5° F. for three days. Although the larvae could easily consume the leaf within 24 to 48 hours, no more food was added. Larvae which were unable to move the length of the body, even upon stimulation, were considered dead.
as §2

[3] = test system: southern armyworm (Prodenia eridania, (Cram.)); test: Southern Armyworm Leaf Spray Test; parameters: key: A: excellent control; B: partial control; C: no control; details: 500 ppm, three days
Description: as §1
Larvae of the southern armyworm (Prodenia eridania, (Cram.)), reared on Tendergreen bean plants at a temperature of 80±5° F. and a relative humidity of 50±5 percent, constituted the test insects.
The test compounds were formulated by diluting the stock suspension with water to give a suspension containing 500 parts of test compound per million parts of final formulation. Potted Tendergreen bean plants of standard height and age were placed on a revolving turntable and sprayed with 100-110 milliliters of test compound formulation by use of a DeVilbiss spray gun set at 10 psig air pressure. This application, which tested 25 seconds, was sufficient to wet plants to run-off. As a control, 100-110 milliliters of a water-acetone-emulsifier solution containing no test compound were also sprayed on infested plants. When dry, the paired leaves were separated and each one was placed in a 9 centimeter Petri dish lined with moistened filter paper. Five randomly selected larvae were introduced into each dish and the dishes were closed. The closed dishes were labeled and held at 80°-85° F. for three days. Although the larvae could easily consume the whole leaf within twenty-four hours, no more food was added. Larvae which were unable to move the length of the body, even upon stimulation by prodding, were considered dead. Percent mortality was recorded for various concentration levels.
as §2

[4] = test system: bean aphid (Aphis fabae Scop.); test: Bean Aphid Foliage Spray Test; parameters: key: A: excellent control; B: partial control; C: no control; details: 500 ppm, 24 hour holding period
Description: as §1
Adults and nymphal stages of the bean aphid (Aphis fabae Scop.) reared on potted dwarf nasturtium plants at 65°-70° F. and 50-70 percent relative humidity, constituted the test insects. For testing purposes, the number of aphids per pot was standardized to 100-150 by trimming plants containing excess aphids.
The test compounds were formulated by diluting the stock suspension with water to give a suspension containing 500 parts of test compound per million parts of final formulation.
The potted plants (one pot per compound tested) infested with 100-150 aphids, were placed on a revolving turntable and sprayed with 100-110 milliliters of test compound formulation by use of a DeVilbiss spray gun set at 40 psig. air pressure. This application, which tested 25 seconds, was sufficient to wet the plants to run-off. As a control, 100-110 milliliters of a water-acetone-emulsifier solution containing no test compound were also sprayed on infested plants. After spraying, the pots were placed on their sides on a sheet of white standard mimeograph paper which had been previously ruled to facilitate counting. Temperature and humidity in the test room during the 24 hour holding period were 65°-70° F. and 50-70 percent, respectively. Aphids which fell onto the paper and were unable to remain standing after being uprighted were considered dead. Aphids remaining on the plants were observed closely for movement and those which were unable to move the length of the body upon stimulation by prodding were considered dead. Percent mortality was recorded for various concentration levels.
as §2

[5] = test system: house flies (Musca domestica, L.); test: Fly Bait Test; parameters: key: A: excellent control; B: partial control; C: no control; details: 500 ppm in sugar solution, twenty four hours
Description: as §1
Four to six day old adult house flies (Musca domestica, L.) reared according to the specifications of the Chemical Specialities Manufacturing Association (Blue Book, McNair-Dorland Co., N.Y. 1954; pages 243-244, 261) under controlled conditions of 80±5° F. and 50±5 percent relative humidity, were the test insects. The flies were immobilized by anesthetizing with carbon dioxide and twenty five immobilized individuals,males and females, were transferred to a cage consisting of a standard food strainer about five inches in diameter which was inverted over a wrapping-paper-covered surface. The test compounds were formulated by diluting the stock suspension with a 10 percent (by weight) sugar solution to give a suspension containing 500 parts of test compound per million parts of final formulation, by weight. Ten milliliters of the test formulation were added to a souffle cup containing a one-inch square of an absorbent cotton pad. This bait cup was introduced and centered on the blotting paper under the food strainer prior to admitting the anesthetized flies. The caged flies were allowed to feed on the bait for twenty four hours, at a temperature of 80±5° F. and the relative humidity of 50±5 percent.
as §2

[6] = test system: root-knot nematode (Meloidogyne incognita var. acrita); test: Nematode Test; parameters: key: 1: severe galling; equal to untreated control; 2: moderate galling; 3: light galling; 4: very light galling; 5: no galling; details: 10 ml of 500 ppm formulation per jar (approx. 180 cc soil), cucumber indicator crop, approx. three weeks
Description: as §1
Infective migratory larvae of the root-knot nematode, (Meloidogyne incognita var. acrita) were reared in the greenhouse on roots of Rutgers variety tomato plant. Infected tomato plants were removed from the culture and the roots were chopped very finely. A small amount of inoculum from the roots was added to pint Mason jars containing approximately 180 cc of soil. The jars containing the inoculum and soil were capped and incubated for one week at room temperature. During this period eggs of the nematode hatched and the larvae forms migrated into the soil.
The test compounds were formulated by diluting the stock suspension with water to give a suspension containing 500 parts of test compound per million parts of final formulation. 10 milliliters of the test formulation was added to each of two jars for each dosage treated. As a control 10 milliliters of a water-acetone-emulsifier solution containing no test compound was also added to jars containing nematode larvae. The jars were capped and the contents thoroughly mixed on a kale mill for five minutes. The jars remained capped at room temperature for a period of 48 hours and the contents were then transferred to 3 inch pots. Subsequently, the pots were seeded to cucumber as an indicator crop and placed in the green house where they were cared for in the normal fashion for growing potted cucumber for approximately three weeks. These cucumber plants were then removed from the pots, the soil washed from the roots and the amount of galling visually rated.
The nematocidal toxicity has the following ratings;

| Compound | 2-Spotted Mite control rating [1] | Mexican Bean Beetle control rating [2] | Southern Armyworm control rating [3] | Bean Aphid control rating [4] | House-Fly control rating [5] | Root-Knot Nematode galling rating [6] |
| --- | --- | --- | --- | --- | --- | --- |
| CN1CCSC(=NOC(=O)N(C)SSN(C)C(=O)ON=C2SCCN(C)C2=O)C1=O [N,N'-bis-[4-Methyl-2-(O-(N-methylcarbamoyl)oximino)tetrahydro-1,4-thiazin-3-one]disulfide] | A | A | A | A | A | – |
| CSC(C)(C)C=NOC(=O)N(C)SSN(C)C(=O)ON=CC(C)(C)SC [N,N'-bis-[2-methylthio-2-methylpropionaldehyde O-(N-methylcarbamoyl)oxime]disulfide] | A | A | A | A | A | 5 |
| CC(C)N1C(=O)C(C)(C)SC1=NOC(=O)N(C)SSN(C)C(=O)ON=C1SC(C)(C)C(=O)N1C(C)C [N,N'--Bis-[3-Isopropyl-5,5-dimethyl-2-(O--(N--methylcarbamoyl)oximino)-1,3-thiazolidin-4-one] disulfide] | C | A | B | A | C | – |
| CN(SSN(C)C(=O)ON=CC(C)(C)S(C)(=O)=O)C(=O)ON=CC(C)(C)S(C)(=O)=O [N,N'-Bis-[2-Methylsulfonyl-2-methylpropionaldehyde O-(N-methylcarbamoyl)oxime]disulfide] | B | C | C | C | A | 4 |
| CN=C1SC(=NOC(=O)N(C)SSN(C)C(=O)ON=C2SC(=NC)SC2(C)C)C(C)(C)S1 [N,N'--Bis-[2-Methylimino-4,4-dimethyl-5-(O--(N--methyl-carbamoyl)oximino-1,3-dithiolane]disulfide] | B | A | A | A | A | 4 |
| CC1OCSC1=NOC(=O)N(C)SSN(C)C(=O)ON=C1SCOC1C (stereo not shown) [N,N'-bis-[5-Methyl-4-(O-(N-methylcarbamoyl)oximino)-1,3-oxathiolane]disulfide] | A | A | A | A | A | 1 |
| CN(SSN(C)C(=O)ON=CC(C)(C)C#N)C(=O)ON=CC(C)(C)C#N [N,N'-bis-[2-Cyano-2-methylpropionaldehyde O-(N-methylcarbamoyl)oxime]disulfide] | A | A | A | A | A | 4 |
| CN(SSN(C)C(=O)ON=C1SCCS1)C(=O)ON=C1SCCS1 [N,N'-bis-[2-(O-(N-Methylcarbamoyl)oximino)-1,3-dithiolane]disulfide] | C | A | A | A | A | 5 |
| CC(=NOC(=O)N(C)SSN(C)C(=O)ON=C(C)[S+](C)[O-])[S+](C)[O-] (stereo not shown) [N,N'--Bis-[1-Methylsulfinylacetaldehyde O--(N--methylcarbamoyl)oxime] disulfide] | C | A | B | C | A | 1 |
| CC(=NOC(=O)N(C)SSN(C)C(=O)ON=C(C)SC(C)C)SC(C)C [N,N'-Bis-[1-Isopropylthioacetaldehyde O-(N-methylcarbamoyl)oxime]disulfide] | A | A | A | A | A | 4 |
